Laboratory results taken from ChEMBL document CHEMBL3045736, “Cobalt mediated ring contraction reaction of lapachol and initial antibacterial evaluation of naphthoquinones derived from lapachol” (2012).
Converted amounts (≈) assume the structure as drawn.

Assays:
Assay type in all cases: functional
[1] = tested on: Bacillus cereus; assay: Antibacterial activity against Bacillus cereus after 24 hr by p-iodonitrotetrazolium assay
[2] = tested on: Staphylococcus aureus; assay: Antibacterial activity against Staphylococcus aureus after 24 hr by p-iodonitrotetrazolium assay
[3] = tested on: Escherichia coli; assay: Antibacterial activity against Escherichia coli after 24 hr by p-iodonitrotetrazolium assay
[4] = tested on: Mycobacterium tuberculosis; assay: Antimycobacterial activity against Mycobacterium tuberculosis by Bactec TB-460 assay

| Molecule | MIC [1] | MIC [2] | MIC [3] | MBC [4] [µM] | MIC [4] [µM] |
| --- | --- | --- | --- | --- | --- |
| CC(=O)OC=CC1=C(O)C(=O)c2ccccc2C1=O | > 78.1 µg/mL | > 78.1 µg/mL | > 78.1 µg/mL |  |  |
| CC(C)=CCC1(O)C(=O)c2ccccc2C1=O | > 78.1 µg/mL | 240 µM | > 78.1 µg/mL | 240 (≈ 55.2 µg/mL) | 120 (≈ 27.6 µg/mL) |
| CC(C)(O[N+](=O)[O-])C1CC2=C(O1)C(=O)c1ccccc1C2=O (stereo not drawn) | > 78.1 µg/mL | 272 µM | > 78.1 µg/mL | 136 (≈ 41.3 µg/mL) | 34 (≈ 10.3 µg/mL) |
| C=C(C)c1cc2c(o1)C(=O)c1ccccc1C2=O | > 78.1 µg/mL | 328 µM | 328 µM | 164 (≈ 39.1 µg/mL) | 41 (≈ 9.77 µg/mL) |
| O=CCC1=C(O)C(=O)c2ccccc2C1=O | > 78.1 µg/mL | > 78.1 µg/mL | > 78.1 µg/mL | 723 (≈ 156 µg/mL) | 362 (≈ 78.2 µg/mL) |
| C=C(C)C1CC2=C(O1)C(=O)c1ccccc1C2=O (stereo not drawn) [DEHYDROISO-ALPHA-LAPACHONE] | > 78.1 µg/mL | 326 µM | > 78.1 µg/mL | 81.4 (≈ 19.6 µg/mL) | 40.7 (≈ 9.77 µg/mL) |
| NNC(=O)c1ccncc1 [ISONIAZID] |  |  |  | 1.75 (≈ 0.24 µg/mL) | 0.88 (≈ 0.121 µg/mL) |
| CC(C)=CCC1=C(O)C(=O)c2ccccc2C1=O [LAPACHOL] | > 78.1 µg/mL | > 78.1 µg/mL | > 78.1 µg/mL | 646 (≈ 156 µg/mL) | 161 (≈ 39.1 µg/mL) |
| CC1(C)CCC2=C(O1)c1ccccc1C(=O)C2=O [LAPACHONE] | 161 µM | 161 µM | 161 µM | 80.7 (≈ 19.6 µg/mL) | 20.2 (≈ 4.89 µg/mL) |
| CC(=O)c1cc2c(o1)C(=O)c1ccccc1C2=O [NAPABUCASIN] | > 78.1 µg/mL | 326 µM | > 78.1 µg/mL | 163 (≈ 39.1 µg/mL) | 40.7 (≈ 9.77 µg/mL) |
| GENTAMICIN | 3.6 µM | 7.2 µM | 3.6 µM |  |  |
